Like-named read-outs stand apart in the source and are kept apart here.
Key:
[1] = Population pharmacokinetics, Phase 3 pooled analysis; format: in vivo, human
From the text: During each Phase 3 study, 4 blood samples for population pharmacokinetic evaluation were obtained. In the study of patients with CKD, 2 predose samples were obtained at weeks 8 and 16 and 2 postdose samples were obtained at least 2 days after dosing between weeks 8 and 10 and weeks 16 and 20. In the other 3 studies, 2 predose samples were obtained at weeks 8 and 24 and 2 postdose samples were obtained at least 2 days after dosing between weeks 8 and 10 and weeks 24 and 28. The blood collection and storage procedure were the same as described above.
Plasma samples were analyzed for albiglutide by using a validated enzyme-linked immunosorbent assay (ELISA) and were diluted 100-fold with sample buffer before analysis. Albiglutide was captured using a rabbit anti-human GLP-1 (7-36) amide and detected using a rabbit anti-HSA conjugated to biotin. ELISA experiments were performed using the Furoninc® 96 well plate (Nunc, cat. #437796) with the following steps. […] The microtiter plate was washed 5 times with […] wash buffer (10 mM Sodium Phosphate, 150 mM NaCl, 0.05% Tween 20, pH 7.5) using plate washer; 2) […] blocking buffer of SuperBlock in PBS (SuperBlock (Pierce, cat. #37515) in PBS, 5.0% Rabbit Plasma) was added to each well, sealed and incubated with constant shaking for approximately 1.5 hour (±30 minutes) at ambient room temperature and the microtiter plate washed; 3) 100 mL of either standards, quality controls (QCs) or samples were added per well, sealed, incubated and washed; 4) 100 mL of Detection Antibody solution of Biotin Labelled Rabbit polyclonal to Human Serum Albumin (NOVUS Biologicals, cat. # NB 100-1674) was added per well, sealed, incubated and washed; 5) 100 mL of Reporter Tag solution (Streptavidin-HRPO Conjugate, Caltag, cat. # SA1007) was added per well, sealed, incubated and washed; 6) 100 mL of Development Substrate Pico (SuperSignal ELISA, Pierce, cat. #37070) was added, incubated and the plate read using plate reader (Wallac 1420 Victor Multilabel Counter, Perkin Elmer Life Sciences, Boston, Mass.). […]

patients with T2D and RI = format: in vivo, human; settings: for Model-adjusted change from baseline A1C, LS mean (SE): ANCOVA
Protocol: Therapies for type 2 diabetes mellitus (T2DM) with renal impairment (RI) are limited and may require dose adjustment. This 52-week randomized, double blind, active controlled, Phase III parallel group study examined efficacy/safety of QW Albi injections (30 mg uptitrated to 50 mg if needed) vs daily Sita in patients with T2D and RI (eGFR≧15 and <90 mL/min/1.73 m^2) and A1C 7-10% on lifestyle (11% of subjects) or metformin (Met), thiazoldinedone (TZD), sulfonylureas (SU), or any combination (89% of patients). […] Primary endpoint was A1C change at week 26 for Albi vs Sita (noninferiority with subsequent superiority analysis). Eligible subjects were men or non pregnant, nonlactating women, 18 years of age or older, with a historical diagnosis of T2DM who were experiencing inadequate glycemic control on their current regimen of diet and exercise or their antidiabetic therapy of metformin, TZD, SU, or any combination of these OAD medications.

[2] = Week 26, Moderate RI (eGFR 30-59)
[3] = Week 26, Severe RI (eGFR 15-29)

With “Albiglutide: recombinant fusion protein of 2 copies of modified human GLP-1 (fragment 7-36(A8G)) genetically fused in series to recombinant human serum albumin” the “apparent clearance CL/F, typical value of the final population PK model” value ([1]; BW 90.7, eGFR 77.9, covariates body weight, eGFR, African heritage, insulin) was 66.6 mL/h, the “decrease in clearance vs eGFR around 80 mL/min/1.73 m2” value ([1]; patient with eGFR of 50 mL/min/1.73 m2) was “about 9%” and the “decrease in clearance vs eGFR around 80 mL/min/1.73 m2” value ([1]; typical patient with eGFR of 30 mL/min/1.73 m2) was “about 19%”. The “Week 26 A1C, mean” value (patients with T2D and RI; Any RI (eGFR 15-89)) was 7.27%, the “Week 26 A1C, mean” value (patients with T2D and RI; Mild RI (eGFR 60-89 mL/min/1.73 m2)) was 7.23% and the “Week 26 A1C, mean” value (patients with T2D and RI; Moderate RI (eGFR 30-59)) was 7.37%. The “A1C change at week 26, Albi vs Sita, superiority analysis” value (patients with T2D and RI; P=0.0003) was “superior”, the “Week 26 A1C, mean” value (patients with T2D and RI; Severe RI (eGFR 15-29)) was 6.97% and the “A1C<7% achieved, patients” value (patients with T2D and RI; Week 26) was 42.6%. For the same substance, the FPG change (patients with T2D and RI; Week 26) was -25.6 mg/dL, the weight change (patients with T2D and RI; Week 26) was -0.8 kg and the “Model-adjusted change from baseline A1C, LS mean (SE)” value (from here on “Model-adjusted change … (SE)”) (patients with T2D and RI; Week 26, Any RI (eGFR 15-89)) was −0.83%. For the same substance, the “Model-adjusted change … (SE)” value (patients with T2D and RI; Week 26, Mild RI (eGFR 60-89)) was −0.80%, the “Model-adjusted change … (SE)” value (patients with T2D and RI; [2]) was −0.83% and the “Model-adjusted change … (SE)” value (patients with T2D and RI; [3]) was −1.08%. For the same substance, the “Change from baseline A1C, mean (SD)” value (patients with T2D and RI; Week 26, Any RI (eGFR 15-89)) was −0.82%, the “Difference of LS means from sitagliptin (95% CI), A1C” value (“Difference … (95% CI), A1C” for short) (patients with T2D and RI; Week 26, Any RI (eGFR 15-89)) was 0.32% and the “Difference … (95% CI), A1C” value (patients with T2D and RI; Week 26, Any RI (eGFR 15-89), listed as Albi) was −0.32%. For the same substance, the “Change from baseline A1C, mean (SD)” value (patients with T2D and RI; Week 26, Mild RI (eGFR 60-89)) was −0.72%, the “Difference … (95% CI), A1C” value (patients with T2D and RI; Week 26, Mild RI (eGFR 60-89)) was −0.13% and the “Change from baseline A1C, mean (SD)” value (patients with T2D and RI; [2]) was −0.88%. For the same substance, the “Difference … (95% CI), A1C” value (patients with T2D and RI; [2]) was −0.53%, the “Change from baseline A1C, mean (SD)” value (patients with T2D and RI; [3]) was −1.08% and the “Difference … (95% CI), A1C” value (patients with T2D and RI; [3]) was −0.47%. For the same substance, the “Adverse Event rate: diarrhea” value (patients with T2D and RI; in vivo) was 8.8%, the “Adverse Event rate: nausea” value (patients with T2D and RI; in vivo) was 4.8% and the “Adverse Event rate: vomiting” value (patients with T2D and RI; in vivo) was 1.6%. For the same substance, the Anti-Albi antibody rate (patients with T2D and RI; in vivo) was 2.8%, the “Anti-Albi antibody, neutralizing” value (patients with T2D and RI; in vivo) was 0% and the Hypoglycemia rate (patients with T2D and RI; in vivo) was 20.5%. The “Hypoglycemia, severe (number)” value (patients with T2D and RI; in vivo) was 0, the “Injection site reaction rate” value (patients with T2D and RI; in vivo) was 6.8% and the “On-therapy adverse event: Constipation” value (patients with T2D and RI; in vivo) was 15 (6.0) n (%). The “On-therapy adverse event: Diarrhea” value (patients with T2D and RI; in vivo) was 22 (8.8) n (%), the “On-therapy adverse event: Hypertension” value (patients with T2D and RI; in vivo) was 10 (4.0) n (%) and the “On-therapy adverse event: Nasopharyngitis” value (patients with T2D and RI; in vivo) was 13 (5.2) n (%). For the same substance, the “On-therapy adverse event: Upper respiratory tract infection” value (patients with T2D and RI; in vivo) was 9 (3.6) n (%) and the “On-therapy adverse event: Urinary tract infection” value (patients with T2D and RI; in vivo) was 8 (3.2) n (%).
